What is called melting point is the temperature of the solid-liquid transition.

Data on 5 compounds can be found in patent publication US20220259249A1, “INHIBITORS OF ANTIBIOTIC RESISTANCE MEDIATED BY ARNT” (priority 2019, published 2022).

Series [1] relates to P. aeruginosa PA14 col^R 5 (colistin-resistant strain). The series can be described thus: microbe, parasite or virus in culture. The note with it: for IC90: read-out: IC90, synergy with colistin (8 μg/ml); for inhibition of bacterial growth in the presence of colistin: colistin 8 μg/ml; for antibacterial activity per se: in the absence of colistin. The series is classed as cell-based. As for the experimental part:
The compounds identified by in silico screening were tested for their antibacterial activity (in the absence of colistin) and for their synergistic or adjuvant activity with colistin against a colistin-resistant strain of P. aeruginosa grown in the absence or presence of a sub-inhibitory concentration of colistin (8 μg/ml).
This strain over-expresses the am genes responsible for the modification of lipopolysaccharide by the addition of L-amino-arabinose.
The strain was grown in Mueller-Hinton (MH) medium for 8 hours, and inoculated at a cell density of ˜10^6/ml in MH medium supplemented or not with colistin at a concentration of 16 μg/ml. […] The microtitration plates were incubated at 37° C. without stirring for 24 hours. Bacterial growth was assessed by measuring absorbance at 600 nm (A600) in a microplate reader (Victor 2^V, Perkin-Elmer). […] For each compound three independent experiments were conducted, and the averages of the values obtained in the three experiments are considered to determine the values of IC50 e IC90.

For series [2] the test system is unchanged. The series can be described thus: Checkerboard assay compound/colistin. The series is classed as cell-based. As for the experimental part:
The checkerboard essays were performed in microtiter plates with 96 wells, aliquoting in each column of wells 50 μl of MH medium containing decreasing concentrations of colistin (dilutions in reason of 2 from 384 to 1.5 μg/ml) or without colistin, and in each row of wells further 50 μl of MH medium containing decreasing concentrations of compound of interest (dilutions in reason 2 from […]) or without compound. Finally, 50 μl of the inoculum of the PA14 col^R 5 strain were added to each well at a concentration of ˜1.5×10^6 cells/ml in MH medium, so as to reach a final volume of 150 μl, a bacteria concentration equal to […], colistin concentrations in the range 0-128 μg/ml and concentrations of compounds of interest in the range 0-125 μM. Plates were incubated at 37° C. without shaking for 24 hours, and bacterial growth was assessed by measuring the A600 in a microplate reader (Victor 2^V, Perkin-Elmer). Three independent experiments were conducted for each compound, and the averages of the values obtained in the three experiments were considered to determine the IC90 values.

The test system of series [3] is P. aeruginosa strains resistant and sensitive to colistin. The series can be described thus: MIC of colistin in presence of BBN149 or DMSO, P. aeruginosa strains. In kind it is cell-based. The note with it: for MIC of colistin with 0.6% DMSO as a control: colistin without BBN149. On the procedure:
(§1) All the colistin-resistant strains used depend on the aminoarabinosylation of lipid A as a mechanism of resistance to colistin (Lo Sciuto e Imperi, 2018; Esposito et al., 2018). […] MIC essays were performed in 96-well microtitration plates, using previously characterized P. aeruginosa and K. pneumoniae strains (Lo Sciuto e Imperi, 2018; Esposito et al., 2018). […] At least three independent experiments were conducted for each strain.

Series [4] has as its system colistin-resistant clinical strains of Klebsiella pneumoniae. Briefly: MIC of colistin in presence of BBN149 or DMSO, K. pneumoniae clinical strains. In kind it is cell-based. The note with it: for MIC of colistin with 0.6% DMSO as a control: colistin without BBN149. On the procedure:
as §1

The test system of series [5] is 16HBE cells (human epithelial cells of bronchial origin). Briefly: Cell viability test (MTT reduction).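 Also: formazan absorbance at 570 nm after MTT reduction, corrected for cell-free blank wells, reported relative to untreated cells, from duplicate wells over three independent repeats.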
Experimental: The cytotoxic potential of the compounds was evaluated on cell cultures in vitro. […] The results are reported in the table as viability (%) compared to untreated cells (Table 4).
To evaluate the cytotoxic potential of the compounds under examination, the MTT (3-(4,5-dimethylthiazol-2-yl)-2,5-diphenyltetrazolium) reduction test, commonly used to monitor cell viability was used following the exposure to potentially cytotoxic agents. The essay is based on the reduction of MTT to formazan, a compound that assumes a blue colour which can be evaluated by spectrophotometric reading at a wavelength of 570 nm. For the essay we used the 16HBE cell line. […] Each test was performed in duplicate and three independent replicas were made.
Cell viability was calculated as follows:
COD570=OD570 of sample−OD570 of wells without cells (white)
Viability=100−reduction (%)
where: NT indicates the samples of cells non-threated with the compounds; T the samples of cells treated with the compounds at the different concentrations.
The mean cell viability values were calculated using the Excel mean and standard deviation functions.
[6] abbreviates: Pseudomonas aeruginosa, PA14, 24 h, read-out: IC50 without colistin.
Where [7] appears, read: compound ≥31 μM, MIC 64 to 8 μg/ml, PA14 col^R 5.
Setting [8] is: 16HBE, 1.95 μM, 18 hours, MTT, vs untreated cells.
The mark [9] stands for this setting: 16HBE, 3.91 μM, 18 hours, MTT, vs untreated cells.
[10] abbreviates: 16HBE, 7.81 μM, 18 hours, MTT, vs untreated cells.
Setting [11] is: 16HBE, 15.63 μM, 18 hours, MTT, vs untreated cells.
The mark [12] stands for this setting: 16HBE, 62.5 μM, 18 hours, MTT, vs untreated cells.
Setting [13] is: 16HBE, 125 μM, 18 hours, MTT, vs untreated cells.
Setting [14] is: 16HBE, 250 μM, 18 hours, MTT, vs untreated cells.
[15] abbreviates: read-out: IC50, synergy with colistin (8 μg/ml), PA14 ColR5, colistin 8 μg/ml (sub-inhibitory), minimum concentration causing at least 50% growth inhibition, 24 h.
The mark [16] stands for this setting: 16HBE, 31.25 μM, 18 hours, MTT, vs untreated cells.
Where [17] appears, read: PA14 ColR5, colistin 8 μg/ml (sub-inhibitory), minimum concentration causing at least 90% growth inhibition, 24 h.

Where two headings read alike, the source gives them in different places. Some results are limits rather than exact numbers.

Consider `C[C@]12C=C[C@@]3(CC[C@@H]4[C@@](C)(COC(=O)C(=O)O)CCC[C@@]4(C)[C@@H]3CC1)C2` [BBN149, ent-beyer-15-en-18-O-oxalic acid], for which the IC50 in series [1] (Pseudomonas aeruginosa, PA14, 24 h, read-out: IC50, synergy with colistin (8 μg/ml)) was 15.6 µM; in series [1] (setting [6]), above 250 µM. Further, in series [1] (Pseudomonas aeruginosa, PA14, 24 h), the IC90 stood at 31.2 µM. Further, the “inhibition of bacterial growth in the presence of colistin” value in series [1] is given as “able to inhibit bacterial growth in the presence of colistin”. The “antibacterial activity per se” value in series [1] is given as “none of the compounds showed antibacterial activity per se”. The “reduction of MIC of colistin (times)” value in series [2] was found to be 4 times; in series [2] (setting [7]), 8 times. Further, in series [2] (MIC of colistin 64 to 16 μg/ml, PA14 col^R 5), the “concentration of compound reducing MIC of colistin by 4 times” value was at least 16 µM. The “activity on colistin-sensitive strains” value in series [3] (60 μM BBN149, colistin-sensitive P. aeruginosa strains) was “no relevant activity”. Moreover, the “MIC of colistin in the presence of 60 μM BBN149” value (“MIC … of 60 μM BBN149” for short) came to 1 µg/mL in series [3] (strain KK1); 8 µg/mL in series [3] (strain KK1 col^R 1); 1 µg/mL in series [3] (strain KK27); 4 µg/mL in series [3] (strain KK27 col^R 6); 1 µg/mL in series [3] (strain PA14); 8 µg/mL in series [3] (strain PA14 col^R 5). The “MIC … of 60 μM BBN149” value in series [3] (strain TR1) was 1 µg/mL; in series [3] (strain TR1 col^R 6), 4 µg/mL; in series [4] (strain KP-Mo-3), 16 µg/mL; in series [4] (strain KP-Mo-5) it was 8 µg/mL; in series [4] (strain KP-Mo-6) it was 4 µg/mL; in series [4] (strain KP-Mo-11), 8 µg/mL. Moreover, in series [4] (strain KP-Mo-16), the “MIC … of 60 μM BBN149” value came to 8 µg/mL. Moreover, the “Average percentage of cell viability (±standard deviation)” value was 86.07 ± 5.30% in series [5]; 94.15 ± 6.34% in series [5] (setting [8]); 90.17 ± 7.35% in series [5] (setting [9]); 86.13 ± 2.37% in series [5] (setting [10]); 90.80 ± 6.31% in series [5] (setting [11]); 76.33 ± 2.65% in series [5] (setting [12]). Also, the figures for the “Average percentage of cell viability (±standard deviation)” value in series [5] (setting [13]) and in series [5] (setting [14]) were 71.99 ± 5.18% and 65.51 ± 4.05%, respectively.

On to `C[C@@]12CCC3[C@@](CCC4[C@@](C)(COC(=O)C(=O)O)CCC[C@]43C)(CC1)C2` (stereo partly drawn) [FDO-H, ent-beyeran-18-O-oxalic acid], for which the IC50 in series [1] (setting [6]) was below 250 µM; in series [1] (setting [15]) it was 7.81 µM. Moreover, in series [2], the “concentration of compound reducing MIC of colistin by 4 times” value was at least 4 µM. The “reduction of MIC of colistin (times)” value is listed as 4 times in series [2] (compound ≥4 μM, PA14 col^R 5) and 8 times in series [2] (setting [7]). In addition, the “Average percentage of cell viability (±standard deviation)” value in series [5] (setting [8]) amounted to 106.31 ± 17.23%; in series [5] (setting [9]) it was 94.57 ± 12.67%; in series [5] (setting [10]) it was 100.25 ± 23.84%; in series [5] (setting [11]), 94.06 ± 3.88%; in series [5] (setting [16]), 93.65 ± 11.27%; in series [5] (setting [12]), 97.14 ± 12.19%. In addition, the figures for the “Average percentage of cell viability (±standard deviation)” value in series [5] (setting [13]) and in series [5] (setting [14]) were 98.42 ± 16.71% and 76.51 ± 12.64%, respectively.

Turning to colistin [reference compound], the “MIC of colistin with 0.6% DMSO as a control” value (from here on “MIC of colistin with 0.6% DMSO”) in series [3] (strain KK1) came out at 0.5 µg/mL; in series [3] (strain KK1 col^R 1), 128 µg/mL; in series [3] (strain KK27), 0.5 µg/mL; in series [3] (strain KK27 col^R 6), 64 µg/mL; in series [3] (strain PA14) it was 0.5 µg/mL; in series [3] (strain PA14 col^R 5), 64 µg/mL. The “MIC of colistin with 0.6% DMSO” value in series [3] (strain TR1) stood at 0.5 µg/mL; in series [3] (strain TR1 col^R 6), 16 µg/mL; in series [4] (strain KP-Mo-3) it was 128 µg/mL; in series [4] (strain KP-Mo-5), 128 µg/mL; in series [4] (strain KP-Mo-6) it was 32 µg/mL; in series [4] (strain KP-Mo-11), 64 µg/mL. For the same compound, in series [4] (strain KP-Mo-16), the “MIC of colistin with 0.6% DMSO” value worked out at 64 µg/mL.

`C[C@@]12CCC3[C@@](CCC4[C@@]3(C)CCC[C@@]4(C)C(=O)OC3OC(CO)C(O)C(O)C3O)(CC1)C2` (stereo partly drawn) [SR4, glucopyranosyl β-D ester of ent-beyeran-19-oic acid] registered a melting point of 160 °C. In addition, in series [1] (setting [6]), the IC50 was above 250 µM. Also, the IC90 in series [1] (setting [17]) is above 250 µM. Further, in series [2], the “concentration of compound reducing MIC of colistin by 4 times” value came to 125 µM. Further, the “reduction of MIC of colistin (times)” value in series [2] (compound 125 μM only, PA14 col^R 5) turned out to be 4 times. Besides, the “Average percentage of cell viability (±standard deviation)” value in series [5] (setting [8]) is on record as 96.35 ± 9.42%. In series [5] (setting [9]), the “Average percentage of cell viability (±standard deviation)” value stood at 92.31 ± 3.26%. In series [5] (setting [10]), the “Average percentage of cell viability (±standard deviation)” value was found to be 92.44 ± 2.11%. For the same compound, the “Average percentage of cell viability (±standard deviation)” value in series [5] (setting [11]) is on record as 97.27 ± 5.61%. Moreover, in series [5] (setting [16]), the “Average percentage of cell viability (±standard deviation)” value came out at 101.69 ± 4.39%. Moreover, the “Average percentage of cell viability (±standard deviation)” value in series [5] (setting [12]) is 99.27 ± 2.43%. For the same compound, the “Average percentage of cell viability (±standard deviation)” value in series [5] (setting [13]) is reported as 106.23 ± 5.52%. In addition, the “Average percentage of cell viability (±standard deviation)” value in series [5] (setting [14]) is −1.11 ± 2.02%. For the same compound, the “reduction in cell viability” value in series [5] (16HBE, highest concentration (250 μM), 18 hours) is “total reduction of cell viability”.

As to `C[C@]12C=C[C@@]3(CCC4[C@@](C)(COC(=O)CCC(=O)O)CCC[C@@]4(C)C3CC1)C2` (stereo partly drawn) [FDS, ent-beyer-15-en-18-O-succinic acid], the IC50 in series [1] (setting [6]) is above 250 µM; in series [1] (setting [15]), 31.2 µM. In series [1], the “inhibition of bacterial growth in the presence of colistin” value is recorded as “able to inhibit bacterial growth in the presence of colistin”. Further, in series [1], the “antibacterial activity per se” value is listed as “none of the compounds showed antibacterial activity per se”. The IC90 in series [1] (setting [17]) is above 250 µM. In addition, the “Average percentage of cell viability (±standard deviation)” value is 102.95 ± 6.74% in series [5]; 98.93 ± 5.38% in series [5] (setting [8]); 95.34 ± 8.28% in series [5] (setting [9]); 93.53 ± 2.01% in series [5] (setting [10]); 99.77 ± 6.58% in series [5] (setting [11]); 102.15 ± 3.15% in series [5] (setting [12]). Moreover, the “Average percentage of cell viability (±standard deviation)” value in series [5] (setting [13]) was found to be 105.88 ± 1.31%; in series [5] (setting [14]), 86.12 ± 3.18%.
